Counter-ions that a name gives are not always drawn.
Target: T1, sc-urokinase (Homo sapiens, UniProt P00749)
T1 construct: purchased Ribosepharm GmbH, Haan, Germany
Test: Determination of the urokinase-inhibiting activity (chromogenic substrate, Dixon)
Type: biochemical
Conditions: Pefachrome UK or Bz-βAla-Gly-Arg-pNA, 25° C., pH 8.0, mean from at least 3 determinations
Protocol: Determination of the Urokinase-inhibiting Activity
To determine the inhibitory activity, 200 μl of Tris buffer (0.05 mol/l, containing the inhibitor, 0.154 mol/l of NaCl, 5% ethanol, pH 8.0), 25 μl of substrate (Pefachrome UK or Bz-βAla-Gly-Arg-pNA in H2O; Pentapharm Ltd., Basel, Switzerland) and 50 μl of sc-urokinase (Ribosepharm GmbH, Haan, Germany) were incubated at 25° C. After 3 min the reaction was stopped by the addition of 25 μl of acetic acid (50%) and the absorption was determined at 405 nm by means of a microplate reader (MR 50001 Dynatech, Denkendorf, Germany). The Ki values were determined according to Dixon by linear regression using a computer program. The Ki values represent the mean from at least 3 determinations.
The Ki values mentioned in Table 2 can be determined according to the above mentioned method.

| Ki | SMILES |
| --- | --- |
| 0.67 ± 0.18 µM | CCOC(=O)N1CCN(C(=O)N(Cc2cccc(C(=N)N)c2)NS(=O)(=O)c2c(C(C)C)cc(C(C)C)cc2C(C)C)CC1 [Example 5, 1-Ethoxycarbonyl-4-[1-(3-(amino-imino-methyl)-benzyl)-2-(2,4,6-triisopropyl-benzenesulfonyl)-1-hydrazino-carbonyl]-piperazine hydrochloride] |
| 25.6 ± 9.5 µM | CCOC(=O)N1CCN(C(=O)N(Cc2cccc(C(N)=NN)c2)NS(=O)(=O)c2c(C(C)C)cc(C(C)C)cc2C(C)C)CC1 [Example 18] |
